The supplement of paper PMC4862054

Experiments:
Conditions in all cases: 72 h
BT-549 [1] = test system: BT-549
Outline: (§1)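 Breast cancer cell lines (20 µl suspension) were seeded into 384-well plates holding compound at 5 concentrations in 10-fold steps over a compound-specific 10,000-fold range, then incubated 72 h. Cell death was read first by CellTox Green fluorescence (485/520 nm), then viability by CellTiter-Glo luminescence after 10 min at room temperature. Each plate was normalised to 0.1 % DMSO and a positive kill control. EC50 was fitted from the dose-response curves and censored at the top concentration.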

CAL-51 [2] = test system: CAL-51
Outline: as §1

CAL-85-1 [3] = test system: CAL-85-1
Outline: as §1

HCC1143 [4] = test system: HCC1143
Outline: as §1

HCC1937 [5] = test system: HCC1937
Outline: as §1

SK-BR-3 [6] = test system: SK-BR-3
Outline: as §1

BT-474 [7] = test system: BT-474
Description: (§2)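 Drug sensitivity and resistance testing (DSRT) of breast cancer cell lines in 384-well plates, 5 concentrations in 10-fold dilutions over a compound-specific 10,000-fold range. After 72 h, cytotoxicity was read by CellTox Green fluorescence and viability by CellTiter-Glo luminescence (multiplexed), normalised to DMSO and benzethonium chloride controls. EC50 is the inflection point of the fitted dose-response curve (bottom asymptote free, so it can be relative for partial curves) and is censored at the highest tested concentration. Rows with DSS 0 (no meaningful response) were excluded.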

HCC1143 [8] = test system: HCC1143; remark: listed apart in the source
Description: as §2

BT-474 [9] = test system: BT-474; remark: listed apart in the source
Outline: as §1

CAL-120 [10] = test system: CAL-120
Outline: as §1

CAL-148 [11] = test system: CAL-148
Outline: as §1

DU-4475 [12] = test system: DU-4475
Outline: as §1

HCC1599 = test system: HCC1599
Outline: as §1

HDQ-P1 [13] = test system: HDQ-P1
Outline: as §1

Hs578T [14] = test system: Hs578T
Outline: as §1

MCF-10A [15] = test system: MCF-10A
Outline: as §1

MDA-MB-231 [16] = test system: MDA-MB-231
Outline: as §1

MDA-MB-436 = test system: MDA-MB-436
Outline: as §1

MDA-MB-453 [17] = test system: MDA-MB-453
Outline: as §1

MDA-MB-468 [18] = test system: MDA-MB-468
Outline: as §1

MFM-223 [19] = test system: MFM-223
Outline: as §1

CAL-148 [20] = test system: CAL-148; remark: listed apart in the source
Outline: (§3)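 Viability of breast cancer cell lines was measured with CellTiter-Blue after 72 h of incubation on compound-loaded 384-well plates. Cells were seeded in 20 µl onto compound dissolved in 5 µl medium, and 2.5 µl reagent was added for 2 h at 37 °C before reading at 560/590 nm. EC50 was fitted from percent-inhibition dose-response data censored at the highest concentration, normalised per plate to vehicle and a positive kill control, with zero drug sensitivity score rows dropped.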

CAL-51 [21] = test system: CAL-51; remark: listed apart in the source
Outline: as §3

CAL-85-1 [22] = test system: CAL-85-1; remark: listed apart in the source
Outline: as §3

DU-4475 [23] = test system: DU-4475; remark: listed apart in the source
Outline: as §3

HDQ-P1 [24] = test system: HDQ-P1; remark: listed apart in the source
Outline: as §3

MDA-MB-453 [25] = test system: MDA-MB-453; remark: listed apart in the source
Outline: as §3

BT-474 [26] = test system: BT-474; remark: listed apart in the source
Outline: as §3

BT-549 [27] = test system: BT-549; remark: listed apart in the source
Outline: as §3

CAL-120 [28] = test system: CAL-120; remark: listed apart in the source
Outline: as §3

HCC1143 [29] = test system: HCC1143; remark: listed apart in the source
Outline: as §3

HCC1937 [30] = test system: HCC1937; remark: listed apart in the source
Outline: as §3

Hs578T [31] = test system: Hs578T; remark: listed apart in the source
Outline: as §3

MDA-MB-231 [32] = test system: MDA-MB-231; remark: listed apart in the source
Outline: as §3

MDA-MB-468 [33] = test system: MDA-MB-468; remark: listed apart in the source
Outline: as §3

MFM-223 [34] = test system: MFM-223; remark: listed apart in the source
Outline: as §3

SK-BR-3 [35] = test system: SK-BR-3; remark: listed apart in the source
Outline: as §3

BT-549 [36] = test system: BT-549; remark: listed apart in the source
Description: as §2

CAL-85-1 [37] = test system: CAL-85-1; remark: listed apart in the source
Description: as §2

HCC1937 [38] = test system: HCC1937; remark: listed apart in the source
Description: as §2

HDQ-P1 [39] = test system: HDQ-P1; remark: listed apart in the source
Description: as §2

Hs578T [40] = test system: Hs578T; remark: listed apart in the source
Description: as §2

MCF-10A [41] = test system: MCF-10A; remark: listed apart in the source
Description: as §2

MDA-MB-231 [42] = test system: MDA-MB-231; remark: listed apart in the source
Description: as §2

MFM-223 [43] = test system: MFM-223; remark: listed apart in the source
Description: as §2

CN1CCc2c(c3ccccc3n2Cc2ccc(C(=O)NO)cc2)C1 [Tubastatin A]
EC50, CellTiter-Glo (BT-549 [1]): 7980 nM
EC50, CellTiter-Glo (CAL-51 [2]): 297 nM
EC50, CellTiter-Glo (CAL-85-1 [3]): 6160 nM
EC50, CellTiter-Glo (HCC1143 [4]): 2350 nM
EC50, CellTiter-Glo (HCC1937 [5]): 1600 nM
EC50, CellTiter-Glo (SK-BR-3 [6]): 8820 nM
EC50, CellTox Green (BT-474 [7]): > 10000 nM
EC50, CellTox Green (HCC1143 [8]): 297 nM

CC[C@@H]1C(=O)N(C)c2cnc(Nc3ccc(C(=O)N[C@H]4CC[C@H](N5CCN(CC6CC6)CC5)CC4)cc3OC)nc2N1C(C)C [Volasertib]
EC50, CellTiter-Glo (BT-474 [9]): 7.02 nM
EC50, CellTiter-Glo (BT-549 [1]): 20.4 nM
EC50, CellTiter-Glo (CAL-120 [10]): 46.6 nM
EC50, CellTiter-Glo (CAL-148 [11]): 8.07 nM
EC50, CellTiter-Glo (CAL-51 [2]): 16.9 nM
EC50, CellTiter-Glo (CAL-85-1 [3]): 8.51 nM
EC50, CellTiter-Glo (DU-4475 [12]): 25.4 nM
EC50, CellTiter-Glo (HCC1143 [4]): 22.5 nM
EC50, CellTiter-Glo (HCC1599): 64.5 nM
EC50, CellTiter-Glo (HCC1937 [5]): 82.3 nM
EC50, CellTiter-Glo (HDQ-P1 [13]): 53.1 nM
EC50, CellTiter-Glo (Hs578T [14]): 76.9 nM
EC50, CellTiter-Glo (MCF-10A [15]): 33.2 nM
EC50, CellTiter-Glo (MDA-MB-231 [16]): 9.75 nM
EC50, CellTiter-Glo (MDA-MB-436): 3.59 nM
EC50, CellTiter-Glo (MDA-MB-453 [17]): 0.7 nM
EC50, CellTiter-Glo (MDA-MB-468 [18]): 6.98 nM
EC50, CellTiter-Glo (MFM-223 [19]): 4.62 nM
EC50, CellTiter-Glo (SK-BR-3 [6]): 8.82 nM
EC50, CellTiter-Blue viability (CAL-148 [20]): 11.6 nM
EC50, CellTiter-Blue viability (CAL-51 [21]): 24.8 nM
EC50, CellTiter-Blue viability (CAL-85-1 [22]): 10.4 nM
EC50, CellTiter-Blue viability (DU-4475 [23]): 24.7 nM
EC50, CellTiter-Blue viability (HDQ-P1 [24]): 379 nM
EC50, CellTiter-Blue viability (MDA-MB-453 [25]): 6.23 nM
EC50, CellTiter-Blue viability (BT-474 [26]): > 1000 nM
EC50, CellTiter-Blue viability (BT-549 [27]): 23.5 nM
EC50, CellTiter-Blue viability (CAL-120 [28]): 5.21 nM
EC50, CellTiter-Blue viability (HCC1143 [29]): 13.8 nM
EC50, CellTiter-Blue viability (HCC1937 [30]): 11.1 nM
EC50, CellTiter-Blue viability (Hs578T [31]): 36.8 nM
EC50, CellTiter-Blue viability (MDA-MB-231 [32]): 20.4 nM
EC50, CellTiter-Blue viability (MDA-MB-468 [33]): 13.7 nM
EC50, CellTiter-Blue viability (MFM-223 [34]): 1.6 nM
EC50, CellTiter-Blue viability (SK-BR-3 [35]): 8.58 nM
EC50, CellTox Green (BT-549 [36]): 68.5 nM
EC50, CellTox Green (CAL-85-1 [37]): 3.2 nM
EC50, CellTox Green (HCC1143 [8]): 49.1 nM
EC50, CellTox Green (HCC1937 [38]): 0.49 nM
EC50, CellTox Green (HDQ-P1 [39]): 17.9 nM
EC50, CellTox Green (Hs578T [40]): 120 nM
EC50, CellTox Green (MCF-10A [41]): 2.53 nM
EC50, CellTox Green (MDA-MB-231 [42]): 3.18 nM
EC50, CellTox Green (MFM-223 [43]): 0.83 nM
